Measurements published in patent publication US10174067B2, “Type of cytidine derivative and application thereof” (priority 2014, dated 2019).
Marks after values point to notes of the source that are not given here.

What was measured:
[1] = for Weight change rate, Day 0 / Weight of mice, Day 0 / Weight change rate, Day 4 / Weight of mice, Day 4 / Weight change rate, Day 6 / Weight of mice, Day 6 / Weight change rate, Day 8 / Weight of mice, Day 8 / Weight change rate, Day 11 / Weight of mice, Day 11 / Weight change rate, Day 13 / Weight of mice, Day 13 / Weight change rate, Day 15 / Weight of mice, Day 15 / Weight change rate, Day 18 / Weight of mice, Day 18 / Weight change rate, Day 20 / Weight of mice, Day 20 / Weight change rate, Day 22 / Weight of mice, Day 22: G3-G9 groups, single IP dose, Mean±SEM; for Day 22 Mortality: single IP dose (mg/kg)
Summary of the method: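 Test compounds formulated in ethanol:Cremophor EL:saline (5:5:90), vehicle alone as control, in HCT-116 subcutaneous xenografts in female Balb/c nudes (6/group, start 60–150 mm^3). Weight measured three times weekly, tumour weight at end; unpaired t-test on Mean±SEM data.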

ICR mice = assay: in vivo; conditions: female ICR mice; single-dose ip
Description: This experiment was to investigate the toxic effects of single-dose intraperitoneal administration on ICR mice and determine the maximum tolerated dose (MTD) of each subject. Maximum tolerated dose (MTD) refers to the dose that may not cause an animal to die, may not cause the animal to suffer weight loss exceeding 10% (compared with Day 0), or may not produce significant side effects.
The corresponding amount of test substance was taken in a 5 mL glass tube and dissolved in ethanol with a 5 mm magnetic stirrer for stirring. After dissolving completely, Cremophor EL was added with continuous stirring. The marked amount of saline was added and mixed evenly before use. The volume ratio of ethanol, Cremophor EL, and physiological saline was 5:5:90.
Varieties and lines: ICR mice; level: SPF; sex: female.
Method of administration: ip. The dose was reduced in case of animal death, till an animal survived; the dose was increased in case of no animal death; the test was ended when the animals survived normally at the given high dose. Finally, the MTD of the mice on the test substances was determined according to the test results. The animals were observed continuously for 7 days after acute administration.
During the experiment, all animals were under detailed and continuous clinical observation for […], twice a day (10:00 am, 16:00 pm) after administration. The observation included but not limited to: skin, hair, ear, nose, mouth, chest, abdomen, external genitalia, limbs and feet, respiratory and circulatory system, autonomic effects (such as salivation), nervous system (such as tremor, convulsions, stress response and abnormal behavior).
The body of animals was weighed before administration, and then weighed and recorded at the same time each day.
The observation results, animal body weight, and animal survival after one week of administration were recorded in detail every day.

[2] = test system: HCT-116 colon cancer xenografts; assay: Tumor growth inhibition of HCT-116 colon cancer xenografts in tumor-bearing nude mice (tumor volume, TGI %, RTV, T/C %); assay type: in vivo, Balb/c Nude mice; conditions: for Day 0 (RTV) / Tumor volume, Day 0 / Day 4 (RTV) / Tumor volume, Day 4 / Day 6 (RTV) / Tumor volume, Day 6 / Day 8 (RTV) / Tumor volume, Day 8 / Day 11 (RTV) / Tumor volume, Day 11 / Day 13 (RTV) / Tumor volume, Day 13 / Day 15 (RTV) / Tumor volume, Day 15 / Day 18 (RTV) / Tumor volume, Day 18 / Day 20 (RTV) / Tumor volume, Day 20 / Day 22 (RTV) / Tumor volume, Day 22: Mean±SEM; for T/C % (relative tumor proliferation rate): single-dose intraperitoneal, dosage mg/kg: G3, G4, G8 350, G5, G9 325, G6 300, G7 250;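 as to T/C % (relative tumor proliferation rate): control C is the vehicle-treated model control group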
Summary of the method: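 Tumors in HCT-116-inoculated nude mice were sized three times weekly by diameter, with volume V=3/4π(D/2)^3. Significance set at P<0.05.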

[3] = Day 0, G3-G9 groups, single IP dose
[4] = Day 4, G3-G9 groups, single IP dose
[5] = Day 6, G3-G9 groups, single IP dose
[6] = Day 8, G3-G9 groups, single IP dose
[7] = Day 11, G3-G9 groups, single IP dose
[8] = Day 13, G3-G9 groups, single IP dose
[9] = Day 15, G3-G9 groups, single IP dose
[10] = Day 18, G3-G9 groups, single IP dose
[11] = Day 20, G3-G9 groups, single IP dose
[12] = Day 22, G3-G9 groups, single IP dose

CC(C)(C)OC(=O)Nc1ccn([C@@H]2O[C@H](CO)[C@@H](O)C2(F)F)c(=O)n1 [Compound G3, 4N-(t-butyloxycarbonyl)-2′deoxy-2′,2′-difluorocytidine]
Weight change rate, Day 0 [1]: 0.00 ± 0.00% | Weight of mice, Day 0 [1]: 20.47 ± 0.42 g | Weight change rate, Day 4 ([1]; Day 4): 3.13 ± 1.03 % | Weight of mice, Day 4 ([1]; Day 4): 21.10 ± 0.41 g | Weight change rate, Day 6 [1]: 4.36 ± 0.88% | Weight of mice, Day 6 [1]: 21.35 ± 0.39 g | Weight change rate, Day 8 [1]: 2.86 ± 2.28% | Weight of mice, Day 8 [1]: 21.03 ± 0.52 g | Weight change rate, Day 11 [1]: 4.67 ± 0.64% | Weight of mice, Day 11 [1]: 21.43 ± 0.56 g | Weight change rate, Day 13 [1]: 6.20 ± 0.88 % | Weight of mice, Day 13 [1]: 21.75 ± 0.60 g | Weight change rate, Day 15 [1]: 3.40 ± 1.34% | Weight of mice, Day 15 [1]: 21.18 ± 0.66 g | Weight change rate, Day 18 [1]: 2.66 ± 1.40% | Weight of mice, Day 18 [1]: 21.03 ± 0.68 g | Weight change rate, Day 20 [1]: 2.40 ± 1.27% | Weight of mice, Day 20 [1]: 20.98 ± 0.68 g | Weight change rate, Day 22 [1]: 3.33 ± 2.34% | Weight of mice, Day 22 [1]: 21.17 ± 0.77 g | Day 22 Mortality [1]: 0% | clinical symptoms ([1]; after single IP dose, compared with model control group): no significant differences in clinical symptoms | dose that could be tolerated (maximum tolerated dose, MTD) (ICR mice): 350 mg/kg | Day 0 (RTV) [2, 3]: 1.00 ± 0.00 | Tumor volume, Day 0 [2, 3]: 52.61 ± 13.58** mm^3 | T/C % (relative tumor proliferation rate) ([2]; Day 0): 0.00% | Day 4 (TGI %) [2, 4]: 57.58% | Day 4 (RTV) [2, 4]: 1.72 ± 0.37 | Tumor volume, Day 4 [2, 4]: 113.01 ± 44.54 mm^3 | T/C % (relative tumor proliferation rate) ([2]; Day 4): 91.44% | Day 6 (TGI %) [2, 5]: 57.20% | Day 6 (RTV) [2, 5]: 3.21 ± 0.87 | Tumor volume, Day 6 [2, 5]: 180.94 ± 66.04* mm^3 | T/C % (relative tumor proliferation rate) ([2]; Day 6): 106.22% | Day 8 (TGI %) [2, 6]: 58.10% | Day 8 (RTV) [2, 6]: 3.91 ± 1.20 | Tumor volume, Day 8 [2, 6]: 220.12 ± 86.80* mm^3 | T/C % (relative tumor proliferation rate) ([2]; Day 8): 104.00% | Day 11 (TGI %) [2, 7]: 48.19% | Day 11 (RTV) [2, 7]: 7.44 ± 23.2 | Tumor volume, Day 11 [2, 7]: 416.66 ± 160.05 mm^3 | T/C % (relative tumor proliferation rate) ([2]; Day 11): 125.12% | Day 13 (TGI %) [2, 8]: 54.18% | Day 13 (RTV) [2, 8]: 8.92 ± 2.48 | Tumor volume, Day 13 [2, 8]: 531.90 ± 203.98* mm^3 | T/C % (relative tumor proliferation rate) ([2]; Day 13): 103.73% | Day 15 (TGI %) [2, 9]: 46.45% | Day 15 (RTV) [2, 9]: 13.32 ± 4.00 | Tumor volume, Day 15 [2, 9]: 756.53 ± 280.79 mm^3 | T/C % (relative tumor proliferation rate) ([2]; Day 15): 127.18% | Day 18 (TGI %) [2, 10]: 45.71% | Day 18 (RTV) [2, 10]: 17.04 ± 5.01 | Tumor volume, Day 18 [2, 10]: 1004.83 ± 385.58 mm^3 | T/C % (relative tumor proliferation rate) ([2]; Day 18): 123.71% | Day 20 (TGI %) [2, 11]: 41.37% | Day 20 (RTV) [2, 11]: 21.58 ± 6.58 | Tumor volume, Day 20 [2, 11]: 1242.64 ± 464.52 mm^3 | T/C % (relative tumor proliferation rate) ([2]; Day 20): 136.12% | Day 22 (RTV) [2, 12]: 24.39 ± 7.52 | Tumor volume, Day 22 [2, 12]: 1390.74 ± 510.70 mm^3 | T/C % (relative tumor proliferation rate) ([2]; Day 22): 125.42% | maximum value of TGI % ([2]; day of maximum: G3 Day 8, G4 Day 11, G5 Day 11, G9 Day 4, G7 Day 8, single IP): 58.10%

CCCCOC(=O)Nc1nc(=O)n([C@@H]2O[C@H](CO)[C@@H](O)C2(F)F)cc1Br [Compound G6, 5-Br-4-N-(n-butoxycarbonyl)-2′-deoxy-2′,2′-difluorocytidine]
Weight change rate, Day 0 [1]: 0.00 ± 0.00% | Weight of mice, Day 0 [1]: 21.47 ± 0.65 g | Weight change rate, Day 4 ([1]; Day 4): 0.00 ± 0.00% | Weight of mice, Day 4 ([1]; Day 4): 19.30 ± 0.00 g | animals died on Day 4 after administration ([1]; Day 4, G4 350 mg/kg, G8 350 mg/kg, G6 300 mg/kg, single IP, 6 mice a group): Five | Weight change rate, Day 6 [1]: 0.52 ± 0.00% | Weight of mice, Day 6 [1]: 19.40 ± 0.00 g | Weight change rate, Day 8 [1]: 1.55 ± 0.00% | Weight of mice, Day 8 [1]: 19.60 ± 0.00 g | Weight change rate, Day 11 [1]: 6.22 ± 0.00% | Weight of mice, Day 11 [1]: 20.50 ± 0.00 g | Weight change rate, Day 13 [1]: 7.77 ± 0.00% | Weight of mice, Day 13 [1]: 20.80 ± 0.00 g | Weight change rate, Day 15 [1]: 8.29 ± 0.00% | Weight of mice, Day 15 [1]: 20.90 ± 0.00 g | Weight change rate, Day 18 [1]: 5.18 ± 0.00% | Weight of mice, Day 18 [1]: 20.30 ± 0.00 g | Weight change rate, Day 20 [1]: 4.66 ± 0.00% | Weight of mice, Day 20 [1]: 20.20 ± 0.00 g | Weight change rate, Day 22 [1]: 6.22 ± 0.00% | Weight of mice, Day 22 [1]: 20.50 ± 0.00 g | Day 22 Mortality [1]: 83% | dose that could be tolerated (maximum tolerated dose, MTD) (ICR mice): 200 mg/kg | Day 0 (RTV) [2, 3]: 1.00 ± 0.00 | Tumor volume, Day 0 [2, 3]: 80.31 ± 24.42* mm^3 | T/C % (relative tumor proliferation rate) ([2]; Day 0): 0.09% | Day 4 (TGI %) [2, 4]: 82.09% | Day 4 (RTV) [2, 4]: 1.42 ± 0.00 | Tumor volume, Day 4 [2, 4]: 47.71 ± 0.00 mm^3 | T/C % (relative tumor proliferation rate) ([2]; Day 4): 75.54% | Day 6 (TGI %) [2, 5]: 84.52% | Day 6 (RTV) [2, 5]: 1.95 ± 0.00 | Tumor volume, Day 6 [2, 5]: 65.45 ± 0.00 mm^3 | T/C % (relative tumor proliferation rate) ([2]; Day 6): 64.68% | Day 8 (TGI %) [2, 6]: 78.47% | Day 8 (RTV) [2, 6]: 3.38 ± 0.00 | Tumor volume, Day 8 [2, 6]: 113.10 ± 0.00 mm^3 | T/C % (relative tumor proliferation rate) ([2]; Day 8): 89.68% | Day 11 (TGI %) [2, 7]: 72.53% | Day 11 (RTV) [2, 7]: 6.59 ± 0.00 | Tumor volume, Day 11 [2, 7]: 220.89 ± 0.00 mm^3 | T/C % (relative tumor proliferation rate) ([2]; Day 11): 110.90% | Day 13 (TGI %) [2, 8]: 67.12% | Day 13 (RTV) [2, 8]: 11.39 ± 0.00 | Tumor volume, Day 13 [2, 8]: 381.70 ± 0.00 mm^3 | T/C % (relative tumor proliferation rate) ([2]; Day 13): 132.45% | Day 15 (TGI %) [2, 9]: 50.67% | Day 15 (RTV) [2, 9]: 20.80 ± 0.00 | Tumor volume, Day 15 [2, 9]: 696.91 ± 0.00 mm^3 | T/C % (relative tumor proliferation rate) ([2]; Day 15): 198.59% | Day 18 (TGI %) [2, 10]: 22.38% | Day 18 (RTV) [2, 10]: 42.88 ± 0.00 | Tumor volume, Day 18 [2, 10]: 1436.76 ± 0.00 mm^3 | T/C % (relative tumor proliferation rate) ([2]; Day 18): 311.29% | Day 20 (TGI %) [2, 11]: 16.62% | Day 20 (RTV) [2, 11]: 52.73 ± 0.00 | Tumor volume, Day 20 [2, 11]: 1767.15 ± 0.00 mm^3 | T/C % (relative tumor proliferation rate) ([2]; Day 20): 332.56% | Day 22 (TGI %) [2, 12]: 18.00% | Day 22 (RTV) [2, 12]: 64.00 ± 0.00 | Tumor volume, Day 22 [2, 12]: 2144.66 ± 0.00 mm^3 | T/C % (relative tumor proliferation rate) ([2]; Day 22): 329.10%
